Test: First-in-human Phase 1 study (CTL0510), 4-hour IV infusion 3 times weekly: safety
Settings: in vivo
Experimental: The first-in-human Phase 1 study with coenzyme Q10 nanosuspension (40 mg/ml) was conducted in 50 patients with advanced solid tumors. The objectives were to assess the safety, maximum tolerated dose, PK and PD of coenzyme Q10, specifically a 4% coenzyme Q10 nanosuspension formulation (as described in WO 2011/112900, the entire contents of which are expressly incorporated herein by reference), administered as a 4-hour IV infusion 3 times weekly in 28-day cycles. Nine dose levels were explored ranting from 5.62 to 139 mg/kg. Plasma concentration profiles and PK parameters were determined from blood samples collected pre-dose and at intervals to 48 hours post-dose.

Substance: Vitamin K [reference compound]
- INR after Vitamin K administration: all INRs decreased to grade 1 or resolved

Source: US12653776B2, “Methods of treatment of cancer by continuous infusion of coenzyme Q10” (priority 2013, dated 2026)
